Reference: EP4755393A1, “USE OF PROTON PUMP REGULATOR IN PREPARATION OF DRUG” (Shanghai Quietd Biotechnology Co., Ltd., priority 2023, dated 2025)
Ends that are not written are not given here.

Experiments:
[1] = molecular target: hATP6V1B2 (Homo sapiens, UniProt P21281); assay: Co-immunoprecipitation of Myc-tagged hATP6V1B2 with GFP-tagged QD202 and site mutants (HEK 293 lysates, western blot); format: binding; settings: expressed from pEGFP-N3 plasmids in HEK 293, anti-GFP IP, FIG. 7A, 7B
Description: Expression plasmids of hATP6V1B2, QD202, site-mutated QD202(D15A), site-mutated QD202(V16A), site-mutated QD202(P13A), and site-mutated QD202(V14A) were constructed respectively. The hATP6V1B2 was co-transfected into HEK 293 cells with the expression plasmids of QD202, site-mutated QD202(D15A), site-mutated QD202(V16A), site-mutated QD202(P13A) and site-mutated QD202(V14A), respectively, and cellular proteins were extracted 48 h after transfection. Table 1: Plasmid sequences
Protein extraction was performed using Pierce RIPA lysis buffer. Taking cells in a 60 mm culture dish as an example, 500 µL of Pierce RIPA lysis buffer containing protease inhibitors was added. Cells were collected and transferred to a clean 1.5 mL EP tube using a cell scraper. After mixing for 1 h on a rotary mixer at 4°C, the cells were centrifuged at 13,000 rpm at 4°C for 10 min to remove cell debris. The hATP6V1B2 was equally divided into […], which were then mixed separately with the cell lysates transfected with QD202, site-mutated QD202(P13A), site-mutated QD202(V14A), site-mutated QD202(D15A), and site-mutated QD202(V16A), 30 µL of the supernatant was taken and mixed with 10 µL of 4× loading buffer, followed by boiling at 100°C for 5 min and storage at -20°C; 2 µL of the antibody (Anti-GFP, Roche, 11814460001) was added to the remaining 470 µL of the protein lysate, and the mixture was incubated overnight (about 16-18 h) on a rotary shaker at 4°C. 30 µL of Protein G Sepharose beads (Roche, 11243233001) were placed in an EP tube and washed three times with Pierce RIPA lysis buffer to eliminate interference from the original stock solution. The protein that had been incubated with the antibody overnight was added to the Sepharose beads, followed by mixing and incubation at 4°C for 2 h to ensure sufficient binding between the antibody and the protein. The mixture was centrifuged at 4000 rpm for 1 min. The supernatant was aspirated off, followed by the addition of 600 µL of Pierce RIPA lysis buffer. The tube was gently inverted, followed by centrifugation to collect the supernatant. The above steps were repeated three times to wash away non-specifically bound proteins. Finally, 30 µL of 1×loading buffer was added, the mixture was mixed well, heated at 60°C for 20 min to denature the protein, and then stored at -20°C. The protein was examined by western blot (Myc-Tag (9B11) Mouse mAb, CST, 2276S; Anti-GFP, Roche, 11814460001).
The hATP6V1B2 was co-transfected into the host cell line HEK 293 with the expression plasmids of QD202, site-mutated QD202(P13A), site-mutated QD202(V14A), site-mutated QD202(D15A) and site-mutated QD202(V16A), respectively. […] It is therefore hypothesized that valine at position 16 of QD202 is one of the key amino acids for the binding between hATP6V1B2 and QD202, whereas proline at position 13, valine at position 14 and aspartic acid at position 15 can be replaced with alanine, as illustrated in FIG. 7A and FIG. 7B.

[2] = system: APP/PS1 transgenic mice; assay: Novel object recognition test in AD mice; format: in vivo; settings: continuously for 1 week
[3] = system: homozygous DIR-Ki mice; assay: Novel object recognition test in DIR-Ki mice; format: in vivo; settings: intravenous, 7 consecutive days, FIG. 15
Description: Thirty homozygous DIR-Ki mice were divided into three groups: the control group (HO+PBS), the QD202 1 mg/kg group (HO+QD202 1 mpk), and the QD202 5 mg/kg group (HO+QD202 5 mpk). After 7 consecutive days of intravenous administration in the QD202-treated groups, the novel object recognition test was initiated.
Square PVC plastic box (dimensions: 25 cm × 25 cm × 30 cm), two identical size 1 batteries, one plastic toy of the same height as the batteries, experimental observation box, camera, and video recording software
On the day of the experiment, the mice were allowed to acclimatize to the experimental room for 30 min in advance. The test was divided into an acclimation period and a testing period.
Familiarization phase: Two identical batteries were placed 5 cm away from a box wall, with a 5 cm gap between the two batteries. The mice were placed in the center of the area and allowed to explore freely for 10 min. […]
Testing period: A toy with size and height similar to those of the battery was randomly used to replace one battery and placed in the same position as the original battery. […] The entire process was recorded using a camera. […] After the experiment, the time taken for the mice to explore novel and familiar objects in the video was counted manually, and the time recognition index of the novel objects was calculated. […]

Sequence of hATP6V1B2 (P21281 whole entry): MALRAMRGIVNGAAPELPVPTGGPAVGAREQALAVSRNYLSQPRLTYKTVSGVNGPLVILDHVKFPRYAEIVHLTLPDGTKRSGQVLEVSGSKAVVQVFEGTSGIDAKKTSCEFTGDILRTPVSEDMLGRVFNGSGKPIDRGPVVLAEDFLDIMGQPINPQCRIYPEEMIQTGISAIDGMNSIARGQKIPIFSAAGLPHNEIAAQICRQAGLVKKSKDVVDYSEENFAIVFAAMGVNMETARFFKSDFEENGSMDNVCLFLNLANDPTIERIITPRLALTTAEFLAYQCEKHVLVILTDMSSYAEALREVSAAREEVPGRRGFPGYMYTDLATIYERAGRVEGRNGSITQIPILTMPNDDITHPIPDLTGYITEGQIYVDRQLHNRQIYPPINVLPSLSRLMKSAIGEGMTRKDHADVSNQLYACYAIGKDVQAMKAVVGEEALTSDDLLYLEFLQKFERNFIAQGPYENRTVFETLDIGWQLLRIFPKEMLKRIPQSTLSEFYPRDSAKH

QD202: Polypeptide synthesized according to the amino acid sequence set forth in SEQ ID NO: 1; ATP6V1B2 regulator / DIR regulator (YGRKKRRQRRRSPVDVVCS; not fully specified)
binding to Myc-tagged hATP6V1B2 (co-immunoprecipitation) [1]: bind to | learning and cognitive functions in the novel object recognition test ([2]; intragastric, 6.25 mg/kg, ten-month-old APP/PS1 mice, FIG. 9): obvious improvement of learning and cognitive functions | learning and cognitive functions in novel object recognition ([2]; intravenous injection, 1.25 mg/kg, APP/PS1 mice of 10 months old, FIG. 11): obvious improvement on learning and cognitive functions | novel object recognition index ([3]; 1.0 mg/kg): significantly improved | novel object recognition index ([3]; 5.0 mg/kg): significantly improved
